Patent US6906205B2, “Spiro and dispiro 1,2,4-trioxolane antimalarials” (Medicines for Malaria Venture MMV, priority 2002, dated 2005)
Values after ≈ are worked out from the molar mass of the structure shown.

Tests used:
[1] = test system: P. falciparum NF54 strain (sensitive to standard antimalarials); test: semiautomated microdilution assay, [3H]-hypoxanthine incorporation, NF54 strain; assay type: cell-based, Plasmodium falciparum; details: NF54 strain, 72 h incubation
Outline: (§1)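 Intraerythrocytic stages from unsynchronised stock cultures are exposed to test compounds in a semiautomated microdilution format, and fifty percent inhibitory concentrations are then fitted by logit regression.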

[2] = test system: P. falciparum K1 strain (Thailand resistant to chloroquine); test: semiautomated microdilution assay, [3H]-hypoxanthine incorporation, K1 strain; assay type: cell-based, Plasmodium falciparum; details: K1 strain, 72 h incubation
Outline: as §1

[3] = test system: ANKA strain of P. berghei; test: single dose STI in vivo screen in infected mice; design: species or system Plasmodium berghei; details: for Activity (%) po / Activity (%) sc / Activity (%) SSVpo: percent reduction in parasitemia day 3 post-infection, mice; for Activity (%) po / Survival (days) po: single 10 mg/kg po in 3% ethanol and 7% Tween 80; for Activity (%) sc / Survival (days) sc: single 10 mg/kg sc in 3% ethanol and 7% Tween 80; for Activity (%) SSVpo: single po dose in standard suspending vehicle (SSV); for Survival (days) po / Survival (days) sc / Survival (days) SSVpo: untreated control 5.6 ± 0.3; for Survival (days) SSVpo: single po dose in SSV
Outline: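 Groups of 3-5 Moro SPF or NMRI mice infected with the ANKA strain of P. berghei received a single dose of trioxolane on day one post-infection. The compound was given in 3% ethanol and 7% Tween 80 or in SSV (0.5% w/v CMC, 0.5% v/v benzyl alcohol, 0.4% v/v Tween 80, 0.9% w/v sodium chloride in water). Antimalarial activity was scored as percent reduction in parasitemia on day three and as survival time versus untreated controls. Survival to day 30 counted as cure.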

Row | Compound | IC50 (ng/ml) NF54 [1] | IC50 (ng/ml) K1 [2] | Activity (%) po [3] | Activity (%) sc [3] | Activity (%) SSVpo [3] | Survival (days) po [3] | Survival (days) sc [3] | Survival (days) SSVpo [3] | Activity (%) po ([3]; 10 mg/kg) | Activity (%) sc ([3]; 10 mg/kg) | Survival (days) po ([3]; 10 mg/kg) | Survival (days) sc ([3]; 10 mg/kg)
1 | CC(C)(CO)NC(=O)[C@H]1CC[C@]2(CC1)OOC1(O2)C2CC3CC(C2)CC1C3 (stereo partly shown) [OZ129] | 10/>10 ng/ml | 10/>10 ng/ml | 0% | 0% | 4% | 5.3 days | 5.7 days | 5.7 days | – | – | – | –
2 | O=S(=O)(Cc1ccccc1)N1CCC2(CC1)OOC1(O2)C2CC3CC(C2)CC1C3 (stereo not shown) [OZ131] | 4.1 ng/mL (≈ 0.00977 µM) | 1.7 ng/mL (≈ 0.00405 µM) | 21% | 90% | 41% | 5.7 days | 8.0 days | 6.0 days | – | – | – | –
3 | O=C(O)c1ccccc1C(=O)N1CCC2(CC1)OOC1(O2)C2CC3CC(C2)CC1C3 (stereo not shown) [OZ132] | > 10 ng/mL | 9.8 ng/mL (≈ 0.0237 µM) | 38% | 40% | 0% | 6.3 days | 6.3 days | 5.7 days | – | – | – | –
4 | c1ccc2c(c1)OCCC21OOC2(O1)C1CC3CC(C1)CC2C3 (stereo not shown) [OZ134] | 1.1 ng/mL (≈ 0.0035 µM) | 0.88 ng/mL (≈ 0.0028 µM) | 72% | 99.95% | 27% | 6.3 days | 15.3 days | 6.0 days | – | – | – | –
5 | O=C(O)c1ccc(C2(c3ccc(C(=O)O)cc3)OOC3(O2)C2CC4CC(C2)CC3C4)cc1 (stereo not shown) [OZ135] | >100/>100 ng/ml | >100/>100 ng/ml | 1% | 0% | 0% | 5.3/5.3/5.3 days | 5.3/5.3/5.3 days | 5.3/5.3/5.3 days | – | – | – | –
6 | COC(=O)c1ccc(C2(c3ccccc3)OOC3(O2)C2CC4CC(C2)CC3C4)cc1 (stereo not shown) [OZ138] | 19 ng/mL (≈ 0.0467 µM) | 10 ng/mL (≈ 0.0246 µM) | 0% | 7% | 5% | 5.7 days | 6.3 days | 6.3 days | – | – | – | –
7 | O=C(OC[C@H]1CC[C@]2(CC1)OOC1(O2)C2CC3CC(C2)CC1C3)n1ccnc1 (stereo partly shown) [OZ141] | 1.9 ng/mL (≈ 0.00489 µM) | 1.7 ng/mL (≈ 0.00438 µM) | 98% | 99.89% | 97% | 8.0 days | 8.7 days | 8.0 days | – | – | – | –
8 | CC(C)(C)NC(=O)N1CCC2(CC1)OOC1(O2)C2CC3CC(C2)CC1C3 (stereo not shown) [OZ143] | 1.8 ng/mL (≈ 0.00494 µM) | 0.98 ng/mL (≈ 0.00269 µM) | 48% | 99.85% | 44% | 6.7 days | 9.7 days | 6.7 days | – | – | – | –
9 | S=C(Nc1ccccc1)N1CCC2(CC1)OOC1(O2)C2CC3CC(C2)CC1C3 (stereo not shown) [OZ144] | 2.1 ng/mL (≈ 0.00524 µM) | 1.4 ng/mL (≈ 0.0035 µM) | 99.45% | 99.94% | 92% | 7.3 days | 16.7 days | 7.3 days | – | – | – | –
10 | O=C(OC1CCC2(CC1)OOC1(O2)C2CC3CC(C2)CC1C3)n1ccnc1 (stereo not shown) [OZ147] | 1.8 ng/mL (≈ 0.00481 µM) | 1.1 ng/mL (≈ 0.00294 µM) | 85% | 99.89% | 71% | 8.0 days | 19.7 days | 8.0 days | – | – | – | –
11 | O=C1OC2(CCC3(CC2)OOC2(O3)C3CC4CC(C3)CC2C4)c2ccccc21 (stereo not shown) [OZ149] | 8.8 ng/mL (≈ 0.023 µM) | 8.0 ng/mL (≈ 0.0209 µM) | 64% | 87% | 3% | 7.7 days | 14.3 days | 6.0 days | – | – | – | –
12 | O=C(NCCO)[C@H]1CC[C@]2(CC1)OOC1(O2)C2CC3CC(C2)CC1C3 (stereo partly shown) [OZ155] | > 10 ng/mL | 12 ng/mL (≈ 0.0341 µM) | 53% | 73% | 53% | 6.3 days | 8.3 days | 7.0 days | – | – | – | –
13 | C(CNC1CCC2(CC1)OOC1(O2)C2CC3CC(C2)CC1C3)CN1CCOCC1 (stereo not shown) [OZ161] | 0.50 ng/mL (≈ 0.00123 µM) | 0.40 ng/mL (≈ 0.000984 µM) | 59% | 99.96% | 46% | 7.0 days | 12.7 days | 6.7 days | – | – | – | –
14 | O=C(O)c1ccc([C@H]2CC[C@]3(CC2)OOC2(O3)C3CC4CC(C3)CC2C4)cc1 (stereo partly shown) [OZ165] | > 10 ng/mL | 39 ng/mL (≈ 0.101 µM) | 18% | 9% | 3% | 6.3 days | 5.7 days | 6.0 days | – | – | – | –
15 | CCOC(=O)c1ccc(OC[C@H]2CC[C@]3(CC2)OOC2(O3)C3CC4CC(C3)CC2C4)cc1 (stereo partly shown) [OZ166] | > 10 ng/mL | 28 ng/mL (≈ 0.0633 µM) | 11% | 4% | 0% | 6.7 days | 5.7 days | 6.3 days | – | – | – | –
16 | O=C1c2ccccc2C(=O)N1C[C@H]1CC[C@@]2(CC1)OOC1(O2)C2CC3CC(C2)CC1C3 (stereo partly shown) [OZ167] | > 10 ng/mL | 6.7 ng/mL (≈ 0.0158 µM) | 0% | 97% | 6% | 6.0 days | 7.3 days | 6.0 days | – | – | – | –
17 | CC1(C)CC(NC2CCC3(CC2)OOC2(O3)C3CC4CC(C3)CC2C4)CC(C)(C)N1 (stereo not shown) [OZ171] | 1.4 ng/mL (≈ 0.00334 µM) | 1.3 ng/mL (≈ 0.00311 µM) | 98% | 99.94% | 85% | 9.0 days | 9.7 days | 7.0 days | – | – | – | –
18 | N=C(N)NN=C1CCC2(CC1)OOC1(O2)C2CC3CC(C2)CC1C3 (stereo not shown) [OZ172] | 5.0 ng/mL (≈ 0.015 µM) | 3.5 ng/mL (≈ 0.0105 µM) | 68% | 100% | 82% | 8.0 days | 10.3 days | 10.3 days | – | – | – | –
19 | COCC(=O)N(Cc1ccccc1)C1CCC2(CC1)OOC1(O2)C2CC3CC(C2)CC1C3 (stereo not shown) [OZ173] | 32 ng/mL (≈ 0.0725 µM) | 58 ng/mL (≈ 0.131 µM) | 15% | 80% | 0% | 7.0 days | 9.7 days | 6.7 days | – | – | – | –
20 | COCC(=O)N(C1CCCCC1)C1CCC2(CC1)OOC1(O2)C2CC3CC(C2)CC1C3 (stereo not shown) [OZ174] | 34 ng/mL (≈ 0.0784 µM) | 27 ng/mL (≈ 0.0623 µM) | 0% | 90% | 15% | 6.7 days | 10.3 days | 7.3 days | – | – | – | –
21 | O=C(O)c1ccc(OC[C@H]2CC[C@]3(CC2)OOC2(O3)C3CC4CC(C3)CC2C4)cc1 (stereo partly shown) [OZ176] | 35 ng/mL (≈ 0.0844 µM) | 25 ng/mL (≈ 0.0603 µM) | 11% | 24% | 18% | 7.0 days | 7.0 days | 7.7 days | – | – | – | –
22 | CS(=O)(=O)c1ccc([C@H]2CC[C@]3(CC2)OOC2(O3)C3CC4CC(C3)CC2C4)cc1 (stereo partly shown) [OZ178] | 27 ng/mL (≈ 0.0645 µM) | 21 ng/mL (≈ 0.0502 µM) | 32% | 31% | 23% | 7.3 days | 10.0 days | 7.3 days | – | – | – | –
23 | CC1(C)COC(c2ccc([C@H]3CC[C@]4(CC3)OOC3(O4)C4CC5CC(C4)CC3C5)cc2)=N1 (stereo partly shown) [OZ180] | 2.8 ng/mL (≈ 0.0064 µM) | 3.7 ng/mL (≈ 0.00846 µM) | – | – | 97% | – | – | 12.7 days | 99.91% | 65% | 13.7 days | 10.3 days
